Laboratory results from US11130733B2, “4-OXO-alkylated tetramic acid compound, preparation method and use thereof” (BEIJING JOEKAI BIOTECH. LLC, priority 2017, dated 2021).
“And” between values parts separate entries of the source, which are not always exact repeats. Equal values may be shown once. Read-outs that look alike come from different tables or passages of the source.

Experiment: Pharmacokinetic evaluation, plasma and brain concentrations
Format: in vivo, ICR mice
Conditions: for concentration at 0.083 h / concentration at 0.25 h / concentration at 0.5 h / concentration at 1 h / concentration at 2 h / concentration at 4 h / concentration at 6 h / concentration at 8 h: male, ICR, mouse
From the text: Distribution of a medicament in the body is one of the important indicators to determine the dose and efficacy of the medicament. Thus, excellent candidate compounds should have good pharmacokinetic characteristics. In addition, since the compound of the present invention is intended to be used for the treatment of Alzheimer's disease, which is a disease of the central nervous system, the distribution pattern of the compound in the brain and the blood is also one of the subjects to be investigated. In this experiment, compound 50561 was administered to mice […] or by gavage, and the concentrations of the compound in blood and brain were measured at specific time points to determine the pharmacokinetic parameters.
Forty-eight male ICR mice purchased from Shanghai Sippr-BK Lab. Animal Co. Ltd were used in this experiment. The oral group was fasted for 10-14 hours before administration, and feeding was restored 4 hours after administration. Samples were collected from the intravenous administration group 0.083 h, 0.25 h, 0.5 h, 1 h, 2 h, 4 h, 8 h, and 24 h after administration, respectively: while for the oral administration group, about 0.5 mL of blood was collected from the heart 0.25 h, 0.5 h, 1 h, 2 h, 4 h, 6 h, 8 h, and 24 h after administration, respectively. Heparin sodium was used for anticoagulation. Blood samples were collected and placed on ice, and plasma was separated by centrifugation (centrifugation conditions: 8000 rpm, 6 minutes, 4C). The collected plasma was stored at −80° C. before analysis. After collecting plasma samples, brain tissues were collected, washed with normal saline, water-absorbed by filter paper, weighed immediately, and then placed in labeled tubes (one tube for one brain tissue). The samples to be tested were temporarily placed on ice before being stored in a −80° C. refrigerator.
The analysis methods of biological samples and the analysis of all samples were done by Medicilon Pharmaceutical Technology (Shanghai) Co., Ltd. The intraday accuracy evaluation of the quality control samples was carried out while analyzing the samples, and the accuracy of over 66.7% of the quality control samples was required to be between 80-120%.
When calculating the pharmacokinetic parameters, the BLQ before Cmax (including “No peak”) was calculated as 0; BLQ occurring after Cmax (including “No peak”) was not involved in the calculation. WinNonlin Professional V 5.2 (Pharsight, USA) was adopted to calculate the following pharmacokinetic parameters: AUC(0-t), AUC(0-∞), T1/2, MRT(0-∞), Cmax, and Tmax. The tissue/plasma ratio was to be calculated by the following formula based on the blood concentration data at different time points: Tissue/plasma ratio (mL/g)=tissue blood concentration/plasma blood concentration.

[1] = brain, iv, 1 mg/kg, IV 1 mg/kg, read-out: Brain tissue concentration, Mean
[2] = brain, iv, 1 mg/kg, IV 1 mg/kg, read-out: Brain tissue concentration, individual mice
[3] = brain, po, 10 mg/kg, PO 10 mg/kg, read-out: Brain tissue concentration, Mean
[4] = brain, po, 10 mg/kg, PO 10 mg/kg, read-out: Brain tissue concentration, individual mice
[5] = plasma, iv, 1 mg/kg, IV 1 mg/kg, read-out: Blood concentration, Mean
[6] = plasma, iv, 1 mg/kg, IV 1 mg/kg, read-out: Blood concentration, individual mice
[7] = plasma, po, 10 mg/kg, PO 10 mg/kg, read-out: Blood concentration, Mean
[8] = plasma, po, 10 mg/kg, PO 10 mg/kg, read-out: Blood concentration, individual mice

O=C1C=C(OCc2ccc(F)cc2)[C@H](Cc2ccccc2)N1 [Compound 50561]
Brain/plasma ratio, Mean (PO 10 mg/kg, 6 hr): 2.511 mL/G | Blood concentration, individual mice (PO 10 mg/kg, 6 hr, 10 mg/kg): 6.30 ng/mL and 8.82 ng/mL | Brain tissue concentration, individual mice (PO 10 mg/kg, 6 hr, 10 mg/kg): 11.72 ng/G and 17.40 ng/G and 25.83 ng/G | Brain/plasma ratio, individual mice (PO 10 mg/kg, 6 hr, 10 mg/kg): 1.839 mL/G and 2.764 mL/G and 2.929 mL/G | Brain/plasma ratio, Mean (PO 10 mg/kg, 8 hr): 2.009 mL/G | Blood concentration, individual mice (PO 10 mg/kg, 8 hr, 10 mg/kg): 4.77 ng/mL and 3.88 ng/mL and 1.63 ng/mL | Brain tissue concentration, individual mice (PO 10 mg/kg, 8 hr, 10 mg/kg): 9.49 ng/G and BLQ | Brain/plasma ratio, individual mice (PO 10 mg/kg, 8 hr, 10 mg/kg): 1.575 mL/G and 2.443 mL/G | Blood concentration, individual mice (PO 10 mg/kg, 24 hr): BLQ | Brain tissue concentration, individual mice (PO 10 mg/kg, 24 hr): BLQ | content in brain tissue compared with blood (after intravenous injection and oral administration): higher than that in the blood | concentration at 0.083 h [1]: 738 ng/g | concentration at 0.25 h [1]: 454 ng/g | concentration at 0.25 h [2]: 462 ng/g | concentration at 0.5 h [1]: 204 ng/g | concentration at 0.5 h [2]: 148 ng/g | concentration at 1 h [1]: 43.1 ng/g | concentration at 1 h [2]: 42.6 ng/g | concentration at 0.25 h [3]: 1220 ng/g | concentration at 0.25 h [4]: 1470 ng/g | concentration at 0.5 h [3]: 1600 ng/g | concentration at 1 h [3]: 1120 ng/g | concentration at 1 h [4]: 906 ng/g | concentration at 2 h [3]: 335 ng/g | concentration at 4 h [3]: 41.7 ng/g | concentration at 6 h (brain, po, 10 mg/kg, PO 10 mg/kg, 6 hr, read-out: Brain tissue concentration, Mean): 18.3 ng/g | concentration at 8 h (brain, po, 10 mg/kg, PO 10 mg/kg, 8 hr, read-out: Brain tissue concentration, Mean): 8.5 ng/g | concentration at 8 h (brain, po, 10 mg/kg, PO 10 mg/kg, 8 hr, read-out: Brain tissue concentration, individual mice): 7.52 ng/g | concentration at 0.083 h [5]: 302 ng/mL | concentration at 0.25 h [5]: 195 ng/mL | concentration at 0.25 h [6]: 188 ng/mL | concentration at 0.5 h [5]: 82 ng/mL | concentration at 0.5 h [6]: 58.1 ng/mL | concentration at 1 h [5]: 15.3 ng/mL | concentration at 0.25 h [7]: 653 ng/mL | concentration at 0.25 h [8]: 754 ng/mL | concentration at 0.5 h [7]: 727 ng/mL | concentration at 0.5 h [8]: 1020 ng/mL | concentration at 1 h [7]: 499 ng/mL | concentration at 1 h [8]: 365 ng/mL | concentration at 2 h [7]: 144 ng/mL | concentration at 4 h [7]: 18.9 ng/mL | concentration at 6 h (plasma, po, 10 mg/kg, PO 10 mg/kg, 6 hr, read-out: Blood concentration, Mean): 7.16 ng/mL | concentration at 6 h (plasma, po, 10 mg/kg, PO 10 mg/kg, 6 hr, read-out: Blood concentration, individual mice): 6.37 ng/mL | concentration at 8 h (plasma, po, 10 mg/kg, PO 10 mg/kg, 8 hr, read-out: Blood concentration, Mean): 3.43 ng/mL
